Source: US9273055B2, “Tyrosine kinase inhibitors” (Chembridge Corporation, priority 2008, dated 2016)
Values joined by “and” are separate entries in the source; they are usually repeats but may differ in a detail not shown here. Equal values may be shown once. Read-outs that look alike come from different tables or passages of the source. Each block holds one compound with its values, some of them ahead of it.

Key:
[1] = Caco-2 cell permeation study; format: in vitro ADME; settings: human; for Papp A→B at 2 h, 10 μM / Papp B→A at 2 h, 10 μM: Caco-2, 10 μM; for Papp A→B at 2 h, 10 μM: apical pH 6.5, 2 h; for Papp B→A at 2 h, 10 μM: basolateral pH 7.4, 2 h
[2] = tested on: Caco-2 monolayers; assay: Caco-2 cell permeation study; format: in vitro ADME; settings: for Papp A to B: apical pH 6.5, 2 h
[3] = Rat pharmacokinetics / bioavailability; format: in vivo; settings: for AUC(0-t): male, Sprague-Dawley, plasma, read-out: AUC0-1440 (converted)
[4] = in vitro; settings: rat, pH 7.4
[5] = molecular target: T1, cMET (Homo sapiens, UniProt P08581); assay: In vitro kinase activity assay (LANCE TR-FRET), cMET; format: biochemical
T1 construct: purchased Invitrogen

[6] = tested on: K299 lymphoma cells; assay: 3 day cell viability (WST-1), K299; format: cell-based; settings: Homo sapiens, 72 h, 3 days
[7] = molecular target: T2, FLT3-ITD (Homo sapiens, UniProt P36888, cells depend on it, form not given); assay: BaF3 stable clone growth (WST-1), FLT3-ITD; settings: read-out: BaF3 Stables IC50 ± SEE, FLT3-ITD
T2 sequence (P36888 with tags, fused parts or gaps INS600HVDFREYEYD): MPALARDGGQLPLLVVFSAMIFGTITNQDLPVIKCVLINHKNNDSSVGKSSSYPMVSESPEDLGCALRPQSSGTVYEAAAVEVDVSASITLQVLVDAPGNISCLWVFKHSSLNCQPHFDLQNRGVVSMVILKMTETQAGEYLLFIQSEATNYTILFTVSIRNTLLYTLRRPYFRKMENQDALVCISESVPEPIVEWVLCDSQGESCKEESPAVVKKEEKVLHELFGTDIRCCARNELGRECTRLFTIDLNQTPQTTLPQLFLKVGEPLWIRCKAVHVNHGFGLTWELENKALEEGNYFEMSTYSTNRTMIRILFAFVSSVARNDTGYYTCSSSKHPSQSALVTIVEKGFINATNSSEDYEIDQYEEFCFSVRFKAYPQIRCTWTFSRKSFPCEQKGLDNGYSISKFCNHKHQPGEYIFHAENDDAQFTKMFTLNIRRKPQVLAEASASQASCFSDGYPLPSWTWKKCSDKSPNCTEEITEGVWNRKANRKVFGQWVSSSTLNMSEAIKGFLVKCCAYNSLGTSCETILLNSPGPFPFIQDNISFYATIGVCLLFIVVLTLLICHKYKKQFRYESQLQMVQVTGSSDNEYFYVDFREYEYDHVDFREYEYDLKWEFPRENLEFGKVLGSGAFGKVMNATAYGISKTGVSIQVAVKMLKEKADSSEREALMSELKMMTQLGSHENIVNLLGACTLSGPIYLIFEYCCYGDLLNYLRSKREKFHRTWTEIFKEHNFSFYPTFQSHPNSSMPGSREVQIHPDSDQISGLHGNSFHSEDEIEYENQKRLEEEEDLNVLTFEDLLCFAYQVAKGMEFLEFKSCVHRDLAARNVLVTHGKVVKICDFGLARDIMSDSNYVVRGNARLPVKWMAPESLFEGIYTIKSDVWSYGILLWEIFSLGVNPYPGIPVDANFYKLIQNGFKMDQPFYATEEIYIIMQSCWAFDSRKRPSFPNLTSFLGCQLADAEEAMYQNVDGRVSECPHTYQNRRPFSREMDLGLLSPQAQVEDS

[8] = molecular target: NPM-ALK C1156Y (Homo sapiens, UniProt Q9UM73, C1156Y); assay: BaF3 stable clone growth (WST-1), NPM-ALK C1156Y; settings: BaF3 stables
[9] = molecular target: NPM-ALK R1275Q (Homo sapiens, UniProt Q9UM73, R1275Q); assay: BaF3 stable clone growth (WST-1), NPM-ALK R1275Q; settings: read-out: BaF3 Stables IC50 ± SEE, R1275Q; NPM-ALK construct
[10] = molecular target: EML4-ALK C1156Y (Homo sapiens, UniProt Q9UM73, C1156Y); assay: BaF3 stable clone growth (WST-1), EML4-ALK C1156Y; settings: BaF3 stables
[11] = molecular target: T3, ALK (Homo sapiens, UniProt Q9UM73); assay: In vitro kinase activity assay (LANCE TR-FRET), ALK; format: biochemical
T3 construct: purchased Invitrogen

[12] = molecular target: T4, TrkA (Homo sapiens, UniProt P04629); assay: In vitro kinase activity assay (LANCE TR-FRET), TrkA; format: biochemical
T4 construct: purchased Invitrogen

[13] = Phase I microsome metabolic stability, mouse; format: in vitro ADME; settings: 1.0 mg/ml microsomes
[14] = tested on: U937 lymphoma cells; assay: 3 day cell viability (WST-1), U937; format: cell-based; settings: 3 days
[15] = Guinea pig pharmacokinetics; format: in vivo; settings: 10 mg/kg PO
[16] = Mouse pharmacokinetics; format: in vivo; settings: 10 mg/kg SC
[17] = Dog pharmacokinetics; format: in vivo, beagle dog; settings: 5 mg/kg PO
[18] = molecular target: hERG potassium channel current expressed in HEK293 cells (Homo sapiens, UniProt Q12809); assay: hERG automatic patch clamp (PatchXpress 7000A)
[19] = tested on: NB-1 neuroblastoma cells; assay: 3 day cell viability (WST-1), NB-1; format: cell-based; settings: 72 h, 3 days
[20] = Phase I microsome metabolic stability, rat; settings: pH 7.4
[21] = Phase I microsome metabolic stability, human; settings: pH 7.4
[22] = molecular target: EML4-ALK R1275Q (Homo sapiens, UniProt Q9UM73, R1275Q); assay: BaF3 stable clone growth (WST-1), EML4-ALK R1275Q; settings: read-out: BaF3 Stables IC50 ± SEE, R1275Q; EML4-ALK construct
[23] = positive control run with the compound of that line, 10 μM

Chain of hERG potassium channel current expressed in HEK293 cells (Q12809 whole entry): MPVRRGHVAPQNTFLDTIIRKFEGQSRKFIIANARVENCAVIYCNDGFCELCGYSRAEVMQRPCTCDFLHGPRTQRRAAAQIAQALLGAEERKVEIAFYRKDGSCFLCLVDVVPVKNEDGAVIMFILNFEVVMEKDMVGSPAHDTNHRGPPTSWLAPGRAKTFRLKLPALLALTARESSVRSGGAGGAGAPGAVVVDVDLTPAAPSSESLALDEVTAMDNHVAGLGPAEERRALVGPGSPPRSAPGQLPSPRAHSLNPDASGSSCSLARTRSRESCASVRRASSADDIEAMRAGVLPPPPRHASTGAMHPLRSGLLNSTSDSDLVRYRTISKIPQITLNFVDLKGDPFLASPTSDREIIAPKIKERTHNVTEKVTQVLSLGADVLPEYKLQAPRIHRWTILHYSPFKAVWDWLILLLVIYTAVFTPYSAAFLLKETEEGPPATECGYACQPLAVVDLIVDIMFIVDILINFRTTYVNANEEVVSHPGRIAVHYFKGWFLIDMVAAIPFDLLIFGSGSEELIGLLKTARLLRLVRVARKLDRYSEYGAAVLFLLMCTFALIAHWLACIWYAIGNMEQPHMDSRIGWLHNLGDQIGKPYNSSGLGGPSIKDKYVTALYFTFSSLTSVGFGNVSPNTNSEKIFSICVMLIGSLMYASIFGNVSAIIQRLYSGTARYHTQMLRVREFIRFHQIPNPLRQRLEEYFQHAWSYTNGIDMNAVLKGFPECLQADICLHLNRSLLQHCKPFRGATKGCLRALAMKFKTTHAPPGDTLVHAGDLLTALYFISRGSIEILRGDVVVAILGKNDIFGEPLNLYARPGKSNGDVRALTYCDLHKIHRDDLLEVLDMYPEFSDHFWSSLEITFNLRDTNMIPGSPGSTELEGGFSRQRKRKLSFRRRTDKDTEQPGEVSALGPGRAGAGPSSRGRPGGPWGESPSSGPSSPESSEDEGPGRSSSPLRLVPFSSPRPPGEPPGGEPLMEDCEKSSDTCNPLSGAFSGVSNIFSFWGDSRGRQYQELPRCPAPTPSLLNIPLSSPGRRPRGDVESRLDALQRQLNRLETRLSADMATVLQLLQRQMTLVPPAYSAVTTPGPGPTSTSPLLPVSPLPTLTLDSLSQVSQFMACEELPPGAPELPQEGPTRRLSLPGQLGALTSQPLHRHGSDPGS
Chain of EML4-ALK C1156Y (Q9UM73 1060-1620 C1156Y limits assumed): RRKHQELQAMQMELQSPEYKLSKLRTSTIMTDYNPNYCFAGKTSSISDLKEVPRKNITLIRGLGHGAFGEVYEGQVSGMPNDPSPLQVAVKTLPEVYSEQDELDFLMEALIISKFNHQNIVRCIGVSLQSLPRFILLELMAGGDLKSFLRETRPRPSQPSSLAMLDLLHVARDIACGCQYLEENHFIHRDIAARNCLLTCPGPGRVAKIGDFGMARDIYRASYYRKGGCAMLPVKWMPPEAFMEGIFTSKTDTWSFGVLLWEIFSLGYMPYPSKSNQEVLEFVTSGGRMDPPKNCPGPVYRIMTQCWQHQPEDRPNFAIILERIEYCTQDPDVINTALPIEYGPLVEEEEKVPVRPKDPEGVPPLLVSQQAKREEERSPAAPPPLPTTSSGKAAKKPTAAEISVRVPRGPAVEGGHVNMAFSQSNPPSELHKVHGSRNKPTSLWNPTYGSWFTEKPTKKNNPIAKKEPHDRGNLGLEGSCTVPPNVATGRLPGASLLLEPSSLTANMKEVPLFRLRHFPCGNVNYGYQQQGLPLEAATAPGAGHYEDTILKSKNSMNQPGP
Chain of EML4-ALK R1275Q (Q9UM73 1060-1620 R1275Q limits assumed): as the sequence (Q9UM73 1060-1620 C1156Y limits assumed) above, with Y97C, R216Q counted along it
Chain of NPM-ALK R1275Q (Q9UM73 1060-1620 R1275Q limits assumed): as the sequence (Q9UM73 1060-1620 C1156Y limits assumed) above, with Y97C, R216Q counted along it
T1 sequence (P08581 25-1390): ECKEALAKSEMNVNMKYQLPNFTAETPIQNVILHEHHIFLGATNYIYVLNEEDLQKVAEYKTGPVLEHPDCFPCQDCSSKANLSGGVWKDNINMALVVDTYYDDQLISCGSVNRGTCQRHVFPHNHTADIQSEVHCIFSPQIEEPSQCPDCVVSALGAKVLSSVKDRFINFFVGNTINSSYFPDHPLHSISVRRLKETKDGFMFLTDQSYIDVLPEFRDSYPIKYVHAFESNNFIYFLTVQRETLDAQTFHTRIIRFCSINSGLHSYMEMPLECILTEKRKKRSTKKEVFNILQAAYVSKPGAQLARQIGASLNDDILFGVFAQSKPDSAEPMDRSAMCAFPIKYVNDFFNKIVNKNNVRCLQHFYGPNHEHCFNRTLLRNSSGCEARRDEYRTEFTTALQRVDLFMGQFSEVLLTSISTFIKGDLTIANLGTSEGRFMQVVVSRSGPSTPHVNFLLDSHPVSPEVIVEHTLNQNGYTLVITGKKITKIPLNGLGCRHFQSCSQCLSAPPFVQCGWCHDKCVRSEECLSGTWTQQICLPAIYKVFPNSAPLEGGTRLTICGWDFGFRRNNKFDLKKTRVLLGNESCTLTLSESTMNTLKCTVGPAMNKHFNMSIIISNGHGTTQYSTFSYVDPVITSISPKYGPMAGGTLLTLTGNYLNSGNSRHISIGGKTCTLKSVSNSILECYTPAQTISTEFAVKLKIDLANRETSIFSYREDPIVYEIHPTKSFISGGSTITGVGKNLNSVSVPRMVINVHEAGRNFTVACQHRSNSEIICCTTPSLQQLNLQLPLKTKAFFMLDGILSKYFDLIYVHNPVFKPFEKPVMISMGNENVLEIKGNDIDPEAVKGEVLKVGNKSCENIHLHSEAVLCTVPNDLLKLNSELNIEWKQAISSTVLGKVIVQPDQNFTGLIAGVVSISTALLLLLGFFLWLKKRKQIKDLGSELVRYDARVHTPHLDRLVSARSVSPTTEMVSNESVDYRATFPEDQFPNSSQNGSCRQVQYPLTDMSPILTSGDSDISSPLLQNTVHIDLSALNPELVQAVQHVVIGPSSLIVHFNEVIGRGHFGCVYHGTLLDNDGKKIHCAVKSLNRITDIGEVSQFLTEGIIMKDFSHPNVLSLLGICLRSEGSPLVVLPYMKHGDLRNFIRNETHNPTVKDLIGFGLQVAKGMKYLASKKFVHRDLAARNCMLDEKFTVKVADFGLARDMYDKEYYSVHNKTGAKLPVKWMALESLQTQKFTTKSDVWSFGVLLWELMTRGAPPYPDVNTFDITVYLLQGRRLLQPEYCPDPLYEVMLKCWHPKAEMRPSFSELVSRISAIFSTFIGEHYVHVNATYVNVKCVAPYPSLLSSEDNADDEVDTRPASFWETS
T4 sequence (P04629 33-796): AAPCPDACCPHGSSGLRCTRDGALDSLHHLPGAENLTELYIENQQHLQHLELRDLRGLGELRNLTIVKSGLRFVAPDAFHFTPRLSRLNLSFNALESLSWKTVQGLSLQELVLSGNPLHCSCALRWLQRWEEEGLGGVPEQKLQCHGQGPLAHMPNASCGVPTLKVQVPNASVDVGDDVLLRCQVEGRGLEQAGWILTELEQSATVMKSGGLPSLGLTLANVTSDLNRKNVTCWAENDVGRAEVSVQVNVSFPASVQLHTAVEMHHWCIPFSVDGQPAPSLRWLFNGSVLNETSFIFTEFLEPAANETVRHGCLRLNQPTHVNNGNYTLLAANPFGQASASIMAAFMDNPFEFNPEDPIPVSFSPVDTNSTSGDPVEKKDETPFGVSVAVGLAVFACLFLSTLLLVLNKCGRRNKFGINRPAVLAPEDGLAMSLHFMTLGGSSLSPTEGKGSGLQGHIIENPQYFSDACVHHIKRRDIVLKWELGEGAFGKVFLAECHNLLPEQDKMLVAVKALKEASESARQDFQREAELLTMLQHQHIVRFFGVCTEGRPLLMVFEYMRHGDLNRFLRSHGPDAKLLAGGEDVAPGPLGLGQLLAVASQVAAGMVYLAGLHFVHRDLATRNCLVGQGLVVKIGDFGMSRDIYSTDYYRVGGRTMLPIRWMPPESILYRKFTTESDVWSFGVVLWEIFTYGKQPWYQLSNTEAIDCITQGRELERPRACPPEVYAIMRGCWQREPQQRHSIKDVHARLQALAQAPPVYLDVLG
Chain of NPM-ALK C1156Y (Q9UM73 1060-1620 C1156Y limits assumed): as the sequence (Q9UM73 1060-1620 C1156Y limits assumed) above

recovery at 2 h, 10 μM ([1]; Caco-2, Pos Ctrl: Propranolol Recovery, positive control run with the compound of that line, 10 μM): 44%
Papp at 2 h, 10 μM ([1]; Caco-2, positive control run with the compound of that line, 10 μM): 14 ×10⁻⁶ cm/s
Pos Ctrl (Papp): Propranolol Papp [2, 23]: 13.7 and 14.3 and 11.8
Pos Ctrl: Propranolol Recovery [2, 23]: 63% and 26%
Compound: CC(C)NCC(O)COc1cccc2ccccc12 (centres unmarked) [Propranolol, reference compound]

F ([3]; 10 mg/kg P.O.): 0.402%
AUC(0-t) ([3]; iv, 10 mg/kg I.V.): 8850 ng·h/mL
AUC(0-t) ([3]; po, 10 mg/kg P.O.): 35.5 ng·h/mL
half-life at 0.5 μM [4]: 8.88 min
Compound: CC(Cc1cc(F)ccc1F)Nc1cc[nH]c(=O)c1-c1nc2cc3c(cc2[nH]1)CNC3=O (centres unmarked) [Compound 53]

Compound: C[C@@H](Cc1c(F)c(F)cc(F)c1F)Nc1cc[nH]c(=O)c1-c1nc2cc3c(cc2[nH]1)C(=O)N(c1ccc(F)nc1)C3=O [Compound 15, (S)-6-(6-Fluoropyridin-3-yl)-2-(2-oxo-4-((1-(2,3,5,6-tetrafluorophenyl)propan-2-yl)amino)-1,2-dihydropyridin-3-yl)imidazo[4,5-f]isoindole-5,7(1H,6H)-dione]
IC50 [5]: > 10000 nM
IC50 [6]: > 10000 nM
Papp A→B at 2 h, 10 μM [1]: < 0.2 ×10⁻⁶ cm/s
Papp B→A at 2 h, 10 μM [1]: < 0.2 ×10⁻⁶ cm/s

Compound: 2-(4-(1-(5-Fluoro-2-methylphenyl)propan-2-ylamino)-2-oxo-1,2-dihydropyridin-3-yl)-6-(2-(dimethylamino)ethyl)-6,7-dihydroimidazo[4,5-f]isoindole-5(1H)-one [Compound 45]
GI50 [7]: > 1000 nM
reduced potency, C1156Y compared to NPM-ALK parent construct [8]: 1.6 fold
IC50 [9]: 81 ± 4.2 nM
reduced potency, C1156Y compared to EML4-ALK parent construct [10]: 1.3 fold

IC50 [11]: 15.2 nM
IC50 [12]: 6.36 nM
Compound: C[C@@H](Cc1c(F)c(F)cc(F)c1F)Nc1cc[nH]c(=O)c1-c1nc2cc3c(cc2[nH]1)C(=O)N(c1cccnc1)C3O (stereo partly drawn) [Compound 13, 7-Hydroxy-2-(2-oxo-4-(((S)-1-(2,3,5,6-tetrafluorophenyl)propan-2-yl)amino)-1,2-dihydropyridin-3-yl)-6-(pyridin-3-yl)-6,7-dihydroimidazo[4,5-f]isoindol-5(1H)-one]

Papp A→B at 2 h, 10 μM [1]: > 0.2 ×10⁻⁶ cm/s
microsomal CLint at 0.5 μM [4]: < 5 µL/min/mg
Compound: C[C@@H](Cc1cc(F)ccc1F)Nc1cc[nH]c(=O)c1-c1nc2cc3c(cc2[nH]1)C(=O)N(C)C3=O (stereo in doubt) [Compound 32, 2-(4-(1-(2,5-Difluorophenyl)propan-2-ylamino)-2-oxo-1,2-dihydropyridin-3-yl)-6-methylimidazo[4,5-f]isoindole-5,7(1H,6H)-dione]

Mouse LM-P1 Half-life ([13]; Phase I only, 0.5 μM): 0.901 h
half-life at 0.5 μM ([13]; mouse, liver microsomes, pH 7.4, Phase I only, read-out: Mouse LM-P1 Half-life): 0.214 h
Papp A to B ([2]; Caco-2, 10 μM): 1.7 10−6 cm/sec
Papp B to A ([2]; Caco-2, 10 μM, basolateral pH 7.4, 2 h): 1.4 10−6 cm/sec
Efflux Ratio ([2]; Caco-2, B to A / A to B): 0.5
Compound: CC(Cc1cc(F)ccc1F)Nc1cc[nH]c(=O)c1-c1nc2cc3c(cc2[nH]1)CN(C)C3=O (centres unmarked) [Compound 33, 2-(4-(1-(2,5-Difluorophenyl)propan-2-ylamino)-2-oxo-1,2-dihydropyridin-3-yl)-6-methyl-6,7-dihydroimidazo[4,5-f]isoindol-5(1H)-one]

Papp A→B at 2 h, 10 μM [1]: < 0.2 ×10⁻⁶ cm/s
Papp A to B ([2]; Caco-2, 10 μM): >0.2 10−6 cm/sec
Compound: CC(Cc1cc(F)ccc1F)Nc1cc[nH]c(=O)c1-c1nc2cc3c(cc2[nH]1)C(=O)N(CC(O)CO)C3=O [Compound 34, 2-(4-(1-(2,5-Difluorophenyl)propan-2-ylamino)-2-oxo-1,2-dihydropyridin-3-yl)-6-(R)-2,3-dihydroxypropyl)imidazo[4,5-f]isoindole-5,7(1H,6H)-dione]

Compound: (S)-6-(2-(Dimethylamino)ethyl)-2-(2-oxo-4-((1-(2,3,5,6-tetrafluorophenyl)propan-2-yl)amino)-1,2-dihydropyridin-3-yl)-6,7-dihydroimidazo[4,5-f]isoindol-5(3H)-one [Compound 1]
IC50 [14]: 1600 nM
AUC0-1440 ([3]; 10 mg/kg I.V.): 329 µg·min/mL
CL ([3]; 10 mg/kg I.V.): 25.5 mL/min/kg
MRT ([3]; 10 mg/kg I.V.): 22.7 h
T1/2 ([3]; 10 mg/kg I.V.): 22.05 h
Vss ([3]; 10 mg/kg I.V.): 23.9 L/kg
AUC0-1440 ([3]; 10 mg/kg P.O.): 0.943 µg·min/mL
Cmax ([3]; 10 mg/kg P.O.): 2.21 ng/mL
F ([3]; 10 mg/kg P.O.): 0.287%
Tmax ([3]; 10 mg/kg P.O.): 1.88 h
F [15]: 1%
F [16]: 30%
Compound 1 (parameter cell as printed) [17]: 17.2 µg·min/mL
F [17]: 12%
GI50 [7]: > 3000 nM
IC50 ([18]; read-out: hERG inhib. IC50, HEK293, hERG tail current): 6250 nM

Compound: C[C@@H](Cc1c(F)c(F)cc(F)c1F)Nc1cc[nH]c(=O)c1-c1nc2cc3c(cc2[nH]1)CN(C1CCN(C)CC1)C3=O [Compound 4, (S)-6-(1-Methylpiperidin-4-yl)-2-(2-oxo-4-(1-(2,3,5,6-tetrafluorophenyl)propan-2-ylamino)-1,2-dihydropyridin-3-yl)-6,7-dihydroimidazo[4,5-f]isoindol-5(3H)-one]
IC50 [19]: 257 nM
Papp A→B at 2 h, 10 μM [1]: < 0.2 ×10⁻⁶ cm/s
Papp B→A at 2 h, 10 μM [1]: 20 ×10⁻⁶ cm/s
half-life at 0.5 μM [20]: > 2 h
microsomal CLint at 0.5 μM [20]: < 5.8 µL/min/mg
half-life at 0.5 μM [21]: > 2 h
microsomal CLint at 0.5 μM [21]: < 5.8 µL/min/mg
IC50 [18]: 2720 nM
reduced potency, C1156Y compared to EML4-ALK parent construct [10]: 2.0 fold
IC50 [22]: 2885 ± 20 nM
